What all share (test): NCI anticancer screen, dose series, 48 h
Assay [1] has as its system SNB-75.
Assay [2] concerns HCT-116.
Assay [3] has as its system NCI-H23.
Assay [4] deals with SNB-19.
For assay [5], the system named is SF-295.
The test system of assay [6] is SW-620.
Assay [7] relates to NCI/ADR-RES.
The subject of assay [8] is SR.
The subject of assay [9] is A549.
Assay [10] deals with MDA-MB-435.
The test system of assay [11] is NCI-H522.
The test system of assay [12] is HCT-15.
Assay [13] relates to PC-3.
For assay [14], the system named is MOLT-4.
Assay [15] deals with CCRF-CEM.
The subject of assay [16] is HOP-62.
Assay [17] has as its system MDA-MB-231.
Assay [18] concerns ACHN.
Assay [19] deals with NCI-H226.
The test system of assay [20] is DU-145.

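These data come from cells grown in 96-well plates and exposed to compound for 48 hours at five concentrations. Here, GI50 denotes the concentration required for 50% inhibition of growth.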 Calls of active or inactive are those of the source. Rule as the data show it: active = GI50 up to about 1.1 µM and inactive = higher. Bounds are passed on as bounds.

As to `COc1ccc(-c2cc(-c3ccccc3)nc(N)n2)c(O)c1`, the GI50 is 28.8 µM (inactive) in assay [1]; > 100 µM (inactive) in assay [2]; > 100 µM (inactive) in assay [3]; > 82.8 µM (inactive) in [4]; > 86.1 µM (inactive) in assay [5]; 5.32 µM (inactive) in assay [6]. The GI50 is > 52 µM (inactive) in [7]; 4.3 µM (inactive) in assay [8]; 12.8 µM (inactive) in [9]; 3.56 µM (inactive) in assay [10]; 2.78 µM (inactive) in assay [11]; 6.03 µM in assay [12]. The GI50 in assay [13] is 6.68 µM (inactive); in assay [14], 4.16 µM (inactive); in assay [15], 4.59 µM (inactive); in [16] it was > 49.5 µM (inactive); in [17] it was > 26.2 µM (inactive); in assay [18], 21.1 µM (inactive). For the same compound, the GI50 in assay [19] was > 100 µM (inactive).

As to `CCOC(=O)c1cc(Sc2ccc(N)c(C(=O)OCC)c2)ccc1N`, the GI50 was 12.3 µM (inactive) in assay [1]; > 100 µM (inactive) in [2]; > 100 µM (inactive) in [20]; 25.3 µM (inactive) in assay [3]; > 100 µM (inactive) in [4]; 3.3 µM (inactive) in [5]. Moreover, the GI50 in assay [6] is > 100 µM (inactive); in assay [7] it was 5.25 µM (inactive); in [8], 6.95 µM (inactive); in [9], 19.6 µM (inactive); in [11] it was 4.38 µM (inactive); in assay [12], above 100 µM. The GI50 in assay [13] was 11.4 µM (inactive); in assay [14] it was 8.24 µM (inactive); in [15], 28 µM (inactive); in assay [16] it was 14.8 µM (inactive); in assay [17], 14.4 µM (inactive); in assay [18] it was 10.4 µM (inactive). Besides, the GI50 in assay [19] is 16.7 µM (inactive).

`Nc1c(C(=O)c2ccccc2)[nH]c(NCc2ccccc2)c1C(=S)Nc1ccccc1`: the GI50 in assay [1], in assay [2], in assay [20], in assay [3], in assay [4] and in [5] was > 100 µM (inactive) each time. Also, the GI50 in assay [6], in assay [7], in assay [8], in assay [9], in assay [10] and in [11] was > 100 µM (inactive) each time. The GI50 in assay [12] is above 100 µM; in assay [14], > 100 µM (inactive); in [15] it was > 100 µM (inactive); in assay [16], > 100 µM (inactive); in [17], > 100 µM (inactive); in assay [18] it was > 100 µM (inactive). In addition, the GI50 in assay [19] was > 100 µM (inactive).

Consider `O=C([O-])Cc1ccccc1.[Na+]` [SODIUM PHENYLACETATE], for which the GI50 in assay [1] is 776 µM (inactive); in assay [3], > 2000 µM (inactive); in assay [4], > 2000 µM (inactive); in assay [5] it was 843 µM (inactive); in assay [6], 804 µM (inactive); in [7], 540 µM (inactive). In addition, the GI50 in [8] is 200 µM (inactive); in assay [9], 1410 µM (inactive); in assay [10] it was 1000 µM (inactive); in assay [11], 618 µM (inactive); in assay [12] it was 703 µM; in [13], > 2000 µM (inactive). The GI50 is 289 µM (inactive) in assay [14]; 671 µM (inactive) in [15]; 200 µM (inactive) in assay [16]; 174 µM (inactive) in assay [17]; 1180 µM (inactive) in [18]; 447 µM (inactive) in assay [19].

Values taken from ChEMBL document CHEMBL1201862, “PubChem BioAssay data set” (2004).
